Where no end group is shown, it is not given here.
Columns and labels:
[1] = Oral sucrose tolerance test (glucose control) on Day 4 in diabetic ZDF rats; assay type: in vivo, Male ZDF-Leprfa/Crl (diabetic fa/fa) rats; conditions: po daily 4 days, oral sucrose tolerance test Day 4
Description: (§1) Male ZDF-Leprfa/Crl (diabetic fa/fa) rats fed standard chow are allocated (n=10/group) based on body weight and fasting plasma glucose (FPG). […] An oral sucrose tolerance test (4 g/kg po) is performed on Day 4 and body weight is recorded daily.

[2] = Overall body weight in diabetic ZDF rats dosed daily for 4 days; assay type: in vivo, Male ZDF-Leprfa/Crl (diabetic fa/fa) rats; conditions: po daily 4 days
Description: as §1

[3] = Acute nocturnal food intake in normal-weight rats; assay type: in vivo, rat; conditions: linagliptin 0.5 mg/kg sc BID, GLP-1 0.4 mg/kg sc BID
From the text: (§2) This anti-obesity effect is caused by appetite suppression and change in diet preference, presumably associated with increased dynorphin activity in dopaminergic forebrain regions involved in reward anticipation and habit learning.

[4] = Diet-induced obese (DIO) rats: body weight, food intake, diet preference; assay type: in vivo, rat; conditions: 14 days of monotherapy
From the text: as §2

[5] = system: active GLP-1; experiment: Plasma active GLP-1 5 min after sucrose load in diabetic ZDF rats; assay type: in vivo, Male ZDF-Leprfa/Crl (diabetic fa/fa) rats; conditions: 5 min after the sucrose load
Description: as §1

[6] = Safety and tolerability in people with type 2 diabetes
[7] = Pharmacokinetics of BI 1356 after multiple oral doses once daily for 12 days in patients with type 2 diabetes; conditions: for fe0-24 / feτ, ss: gMean; for feτ, ss: steady state (Day 12)
[8] = S1: linagliptin 1 mg/kg, high-dose voglibose 10 mg/kg
[9] = S2: linagliptin 1 mg/kg, low-dose voglibose 1 mg/kg
[10] = S1: linagliptin 1 mg/kg, voglibose 10 mg/kg
[11] = S2: linagliptin 1 mg/kg, voglibose 1 mg/kg

Row | Compound | glucose control compared with vehicle [1, 8] | glucose control compared with vehicle [1, 9] | change in overall weight compared with vehicle [2, 10] | change in overall weight compared with vehicle [2, 11] | nocturnal food intake [3] | body weight [4] | plasma active GLP-1 increase compared with vehicle ([5]; S1 (voglibose 10 mg/kg)) | plasma active GLP-1 increase compared with vehicle ([5]; S2 (voglibose 1 mg/kg)) | safety and tolerability [6] | mean accumulation ratio RA,AUC ([7]; doses above 1 mg) | fe0-24 ([7]; 2.5 mg oral once daily) | fe0-24 ([7]; 5 mg oral once daily) | fe0-24 ([7]; 10 mg oral once daily) | feτ, ss ([7]; 1 mg oral once daily) | feτ, ss ([7]; 2.5 mg oral once daily) | feτ, ss ([7]; 5 mg oral once daily) | feτ, ss ([7]; 10 mg oral once daily) | form and route of excretion ([7]; human, in vivo) | excreted via the kidney ([7]; therapeutic oral dose levels) | main route of excretion ([7]; therapeutic oral dose levels)
1 | OCC(CO)N[C@H]1C[C@](O)(CO)[C@@H](O)[C@H](O)[C@H]1O [voglibose, reference compound] | −33% | −18% | −3.0% | −1.7% | – | – | – | – | – | – | – | – | – | – | – | – | – | – | – | –
2 | GLP-1: native GLP-1(7-36), short acting GLP-1 receptor agonist (HAEGTFTSDVSSYLEGQAAKEFIAWLVKGR; ends and bridges not checked; UniProt P01275 98-127, looked up, fragment) [reference compound] | – | – | – | – | modest and short-lived suppression | no effect | – | – | – | – | – | – | – | – | – | – | – | – | – | –
3 | CC#CCn1c(N2CCC[C@@H](N)C2)nc2c1c(=O)n(Cc1nc(C)c3ccccc3n1)c(=O)n2C [BI 1356] | −10% | −17% | +0.7% | −0.2% | no effect | no effect | 160% | 144% | placebo-like safety and tolerability | ≤ 1.4 | 0.139% | 0.453% | 0.919% | 3.34% | 3.06% | 6.27% | 3.22% | primarily excreted unchanged via the bile | < 7 % of the administered oral dose | mainly excreted via the liver

From patent US9713618B2, “Method for modifying food intake and regulating food preference with a DPP-4 inhibitor” (Boehringer Ingelheim International GmbH, priority 2012, dated 2017)
